According to article PMC6271077, “Synthesis, Anticancer and Antibacterial Activity of Salinomycin N-Benzyl Amides” (Molecules, 2014):

Legend:
[1] = test system: standard and "wild" strains of M. tuberculosis; test: Tuberculostatic activity, all M. tuberculosis strains (overall); format: cell-based; settings: Mycobacterium tuberculosis, H37RV, read-out: MIC (over M. tuberculosis strains)
[2] = test system: M. tuberculosis isoniazid-sensitive strain (spec. 192); test: Tuberculostatic activity, test-tube dilution; format: cell-based; settings: Mycobacterium tuberculosis, read-out: MIC M. tuberculosis Isoniazid-Sensitive Strain
HL-60/vinc = test: Antiproliferative MTT assay, HL-60/vinc; format: cell-based, human
Description: (§1) Four human cancer cell lines and one normal cell line were used to evaluate anticancer activity of SAL and its N-benzyl amides: human acute promyelocytic leukemia (HL-60) and its vincristine resistant subline (HL-60/vinc), human colon adenocarcinoma cell lines sensitive (LoVo) and resistant to doxorubicin (LoVo/dx) as well as also normal murine embryonic fibroblast cell line (BALB/3T3). The BALB/3T3 cell line was purchased from the American Type Culture Collection (ATCC Rockville, MD, USA), HL-60 cell line from European Type Culture Collection by courtesy of Professor Spik and Dr Mazurier (Laboratory of Biological Chemistry USTL, Lille, France) and HL-60/vinc, LoVo and LoVo/dx by courtesy of Prof. E. Borowski (Technical University of Gdańsk, Gdańsk, Poland). All the cell lines are maintained in the Institute of Immunology and Experimental Therapy (IIET), Wrocław, Poland.
(§2) Human leukemia cells were cultured in ISCOVE medium (IIET, Wroclaw, Polond) containing 10% fetal bovine serum and 2 mM L-glutamine (Sigma Aldrich) and 1 µg/100 mL […] for HL-60/vinc (Sigma Aldrich). Human colon adenocarcinoma cell lines were cultured in mixture of OptiMEM and RPMI 1640 (1:1) medium (IIET) supplemented with 5% fetal bovine serum (Thermo Fisher Scientific, Waltham, MA, USA), 2 mM L-glutamine, 1 mM sodium pyruvate (Sigma Aldrich) and 10 µg/100 mL doxorubicin for LoVo/dx (Sigma Aldrich). Murine embryonic fibroblast cells were cultured in Dulbecco medium (Gibco, Darmstadt, Germany) supplemented with 10% fetal bovine serum (Thermo Fisher Scientific) and 2 mM L-glutamine (Sigma Aldrich). All culture media contained antibiotics: 100 U/mL penicillin (Sigma Aldrich) and 100 µg/mL streptomycin (Polfa-Tarchomin, City, Poland). All cell lines were cultured during entire experiment in humid atmosphere at 37 °C and 5% CO2.
(§3) Twenty four hours before adding the tested compounds all cell lines were seeded in 96-well plates (Sarstedt, Nümbrecht, Germany) in appropriate media with 10^4 cells per well. All cell lines were exposed to each tested agent at four different concentrations from the range 100 to 0.1 µg/mL for 72 h. The cells were also exposed to the reference drugs: cisplatin (Accord, London, UK) and doxorubicin hydrochloride (Fluka, St. Louis, MO, USA). Additionally, all cell lines were exposed to DMSO (the solvent used for tested compounds, Sigma Aldrich) at the concentrations corresponding to those in the tested agent dilutions. For adherent cells sulphorodamine B assay was performed and MTT assay for leukemia cells.
(§4) Proliferation inhibition of leukemia cells by tested compounds was measured by means of MTT assay. Thus, 20 µL of 3-(4,5-dimethylthiazol-2-yl)-2,5-diphenyl tetrazolium bromide solution (Sigma Aldrich) were added to each well and plates were left in cell incubator for 4 h to allow the cells to metabolize yellow MTT to blue formazan. Then, the lysing mixture consisting of 225 mL dimethylformamide, 67.5 g sodium dodecyl sulfate (both from Sigma Aldrich) and 275 mL of distilled water was added in 80 µL volume per well. Plates were incubated for 24 h for the formazan crystals to be released from cells, dissolved and then absorbance of each well was read at Synergy H4 photometer (BioTek Instruments) at 570 nm wavelength.
(§5) Results are presented as mean IC50 (concentration of the tested compound that inhibits cell proliferation by 50%) ± standard deviation. IC50 values were calculated in Cheburator 1.0.2, Dmitry Nevozhay software for each experiment. Compounds at each concentration were tested in triplicates in single experiment and each experiment was repeated at least three times independently. The IR was defined as the ratio of IC50 for a given compound calculated for resistant cell line to that measured for its parental drug sensitive cell line (Table 4).

[3] = test system: HL-60, HL-60/vinc, LoVo, LoVo/dx; test: Antiproliferative assays, all four cancer cell lines (range given); format: cell-based; settings: Homo sapiens; range over HL-60, HL-60/vinc, LoVo, LoVo/dx; read-out: IC50 (range over the cancer cell lines)
Description: as §1, §2, §3
(§6) After 72 h of incubation with tested compounds the cells were fixed in situ by gently adding of 50 µL per well of cold 50% trichloroacetic acid TCA (Avantor Performance Materials, City, Poland) and were incubated at 4 °C for 1 h. Then the wells were washed four times with water and air-dried. Next, 50 µL of 0.2% solution of sulphorodamine B (Sigma Aldrich) in 1% acetic acid (Avantor Performance Materials) were added to each well and plates were incubated at room temperature for 0.5 h. After incubation time, unbound dye was removed by washing plates four times with 1% acetic acid, whereas the stain bound to cells was solubilized with 150 µL of 10 mM Tris base (Sigma Aldrich). Absorbance of each solution was read at Synergy H4 photometer (BioTek Instruments, Winooski, VT, USA) at 540 nm wavelength.
Proliferation inhibition of leukemia cells by tested compounds was measured by means of MTT assay. […]

LoVo/dx = test: Antiproliferative SRB assay, LoVo/dx; format: cell-based, human
Description: as §1, §2, §3, §6, §5

HL-60 = test: Antiproliferative MTT assay, HL-60; format: cell-based, human
Description: as §1, §2, §3, §4, §5

[4] = test system: M. tuberculosis standard H37Rv strain; test: Tuberculostatic activity, test-tube dilution; format: cell-based; settings: Mycobacterium tuberculosis, read-out: MIC M. tuberculosis Standard H37Rv Strain
LoVo = test: Antiproliferative SRB assay, LoVo; format: cell-based, human
Description: as §1, §2, §3, §6, §5

Work on `CC[C@H](C(=O)NCc1ccccc1Br)C1CC[C@H](C)C([C@@H](C)[C@H](O)[C@H](C)C(=O)[C@H](CC)C2O[C@]3(C=C[C@@H](O)C4(CC[C@@](C)(C5CC[C@](O)(CC)[C@H](C)O5)O4)O3)[C@H](C)C[C@@H]2C)O1` (some centres unmarked) [Br-o] yielded an MIC [1] greater than 100 µg/mL, an MIC [2] greater than 100 µg/mL and an IC50 (HL-60/vinc; Homo sapiens, HL60/vinc, 72 h, read-out: IC50 HL-60/vinc) of 4.8 ± 1.48 µM. For the same compound, the “IR HL-60/vinc” value (HL-60/vinc; IR = IC50 HL-60/vinc / IC50 HL-60) was 1.53, the “SI HL-60/vinc” value (HL-60/vinc; SI = IC50 BALB/3T3 / IC50 HL-60/vinc) was 1.36 and the IC50 [3] was 2.32 to 6.84 µM. The IC50 (LoVo/dx; Homo sapiens, LoVo/DX, 72 h, read-out: IC50 LoVo/dx) was 2.87 ± 0.29 µM, the “IR LoVo/DX” value (LoVo/dx; IR = IC50 LoVo/dx / IC50 LoVo) was 0.79 and the “SI LoVo/DX” value (LoVo/dx; SI = IC50 BALB/3T3 / IC50 LoVo/dx) was 2.27. For the same compound, the IC50 (HL-60; Homo sapiens, HL-60, 72 h, MTT, mean ± SD, NA: not active in concentrations used (up to 100 µg/mL), read-out: IC50 HL-60) was 3.13 ± 0.71 µM, the “SI HL-60” value (HL-60; SI = IC50 BALB/3T3 / IC50 HL-60) was 2.08 and the MIC [4] was greater than 100 µg/mL. For the same compound, the IC50 (LoVo; Homo sapiens, LoVo, 72 h, SRB, mean ± SD, read-out: IC50 LoVo) was 3.64 ± 0.07 µM and the “SI LoVo” value (LoVo; SI = IC50 BALB/3T3 / IC50 LoVo) was 1.79.
